Assay results published in patent US20250017903A1, “USE OF EDARAVONE IN TREATMENT OF AUTISM SPECTRUM DISORDER” (SUZHOU AUZONE BIOLOGICAL TECHNOLOGY CO., LTD., priority 2021, published 2025).

Experiments:
[1] = test system: VPA-induced autism model rats; assay: Three-chamber social test (social index) in VPA-induced rat autism model; assay type: in vivo; conditions: for Social index (SI): VPA rats, mean ± SE
Description: (§1) Twenty-five SD pregnant rats were given a single intraperitoneal injection of 500 mg/kg sodium valproate (VPA) on 12.5 embryonic day and delivered on 21 embryonic day, and the male offspring were retained as the VPA group. Five pregnant rats in the control group were given a single intraperitoneal injection of normal saline of the same amount on 12.5 embryonic day and delivered on 21 embryonic day; and the male offspring were designated as the CON group.
(§2) When the offspring rats were 25th day old, an open field test was conducted to observe the grooming time, which reflects the repetitive and stereotyped behaviors of the animals); a three-chamber social test was conducted to observe the Social Index (SI), Social Index=(Time when the animal enters the unfamiliar rat area-time when the animal enters the empty cage area)÷(time when the animal enters the unfamiliar rat area+time when the animal enters the empty cage area), reflecting the social ability of experimental animals.
(§3) On the 26th day after the offspring were born, the modeled VPA group was randomly divided into 6 groups: placebo group (n=19, soluplus 428 mg/kg), positive drug (cromolyn sodium) group (n=14, cromolyn sodium 6.3 mg/kg), positive drug solvent (NS) group (n=12, equal dose of normal saline), EDA low-dose group (n=12, Edaravone 3 mg/kg), EDA medium-dose group (n=12, Edaravone 10 mg/kg) and EDA high-dose group (n=22, Edaravone 30 mg/kg); and another CON group (n=9). The positive drug group and the positive drug solvent group were given intraperitoneal injection, and the placebo group and each dose group of EDA were administrated by oral gavage, once a day for 28 consecutive days. Three-chamber social tests were conducted after 14 and 28 days of administration, and an open field test was conducted after 28 days of administration. After the animals were sacrificed, 6 animals were randomly selected from each group of the placebo group and each dose group of EDA, and the prefrontal cortex, hippocampus, cerebellum and blood were collected to detect oxidative stress-related indicators, so as to detect the antioxidant capacity of the body.

[2] = test system: VPA-induced autism model rats; assay: Open field test (grooming time) in VPA-induced rat autism model; assay type: in vivo; conditions: for Grooming time: VPA rats, mean ± SE, in s (unit assumed); for Grooming time compared with before treatment: self-comparison, p<0.05 (FIG. 5)
Description: as §1, §2, §3

[3] = test system: superoxide dismutase (SOD); assay: SOD activity detection in brain tissue of VPA model rats; assay type: in vivo, rat; conditions: for SOD activity in the cerebellum (CE) / SOD activity in the prefrontal cortex (PFC): after 28 days of gavage, mean ± SE
Description: as §3
After 28 days of gavage treatment, the results of superoxide dismutase (SOD) activity detection in the prefrontal cortex (PFC) and cerebellum (CE) are shown in Table 3.

[4] = test system: glutathione S-transferase (GST); assay: GST activity detection in brain tissue of VPA model rats; assay type: in vivo, rat; conditions: for GST activity in the hippocampus (HIP) / GST activity in the prefrontal cortex (PFC): after 28 days of gavage, mean ± SE
Description: as §3
After 28 days of gavage treatment, the results of glutathione S-transferase (GST) activity detection in the prefrontal cortex (PFC) and hippocampus (HIP) are shown in Table 4.

[5] = test system: reduced glutathione (GSH); assay: GSH detection in hippocampus and serum of VPA model rats; assay type: in vivo, rat; conditions: for GSH activity in the hippocampus (HIP) / GSH activity in the serum: after 28 days of gavage, mean ± SE
Description: as §3
After 28 days of gavage treatment, the results of reduced glutathione (GSH) activity detection in hippocampus (HIP) and serum are shown in Table 5.

cysteine (Cys) = assay: Cys content detection in serum of VPA model rats; assay type: in vivo, rat; conditions: for Cys content in serum: after 28 days of gavage, mean ± SE
Description: as §3

[6] = Day 28, EDA 3 mg/kg oral gavage once a day
[7] = Day 28, EDA 10 mg/kg oral gavage once a day
[8] = Day 28, EDA 30 mg/kg oral gavage once a day
[9] = after 14 days of treatment, each dose group of EDA and cromolyn sodium group, p<0.01 (FIG. 4)
[10] = before treatment (baseline), EDA 3 mg/kg group
[11] = before treatment (baseline), EDA 10 mg/kg group
[12] = before treatment (baseline), EDA 30 mg/kg group
[13] = Day 28, cromolyn sodium 6.3 mg/kg intraperitoneal once a day
[14] = before treatment (baseline), cromolyn sodium 6.3 mg/kg group

Structure (SMILES): CC1=NN(c2ccccc2)C(=O)C1 [EDA, 3-methyl-1-phenyl-2-pyrazolin-5-one]
- Social index (SI) ([1]; Day 14, EDA 3 mg/kg oral gavage once a day): 0.37 ± 0.14
- Social index (SI) ([1]; Day 14, EDA 10 mg/kg oral gavage once a day): 0.42 ± 0.15
- Social index (SI) ([1]; Day 14, EDA 30 mg/kg oral gavage once a day): 0.51 ± 0.11
- Social index (SI) [1, 6]: 0.48 ± 0.10
- Social index (SI) [1, 7]: 0.53 ± 0.09
- Social index (SI) [1, 8]: 0.55 ± 0.06
- Social index compared with the placebo group [1, 9]: significantly improved
- Social index compared with the placebo group ([1]; after 28 days of treatment, each dose group of EDA, p<0.05, high dose p<0.01 (FIG. 4)): significantly improved
- Social index (SI) [1, 10]: −0.12 ± 0.11
- Social index (SI) [1, 11]: −0.07 ± 0.15
- Social index (SI) [1, 12]: −0.04 ± 0.12
- Social index compared with before treatment ([1]; each dose group, after 14 and 28 days of continuous gavage, self-comparison (FIG. 3)): increased significantly
- Grooming time [2, 6]: 6.29 ± 1.72
- Grooming time [2, 7]: 5.04 ± 1.67
- Grooming time [2, 8]: 17.27 ± 5.78
- Grooming time compared with the placebo group ([2]; after 28 days of continuous gavage, each dose group of EDA, p<0.05, low and medium dose p<0.01 (FIG. 6)): significantly reduced
- Grooming time compared with before treatment ([2]; after 28 days of treatment): significantly reduced
- Grooming time compared with the positive drug (cromolyn sodium) group ([2]; after 28 days, EDA low-dose (3 mg/kg) and medium-dose (10 mg/kg) groups (FIG. 6)): significantly reduced
- Grooming time [2, 10]: 29.17 ± 5.82
- Grooming time [2, 11]: 20.76 ± 4.42
- Grooming time [2, 12]: 36.3 ± 5.08
- SOD activity in the prefrontal cortex compared with the placebo group ([3]; EDA medium-dose and high-dose groups, p<0.05, high dose p<0.001 (FIG. 7)): significantly increased
- SOD activity in the cerebellum (CE) ([3]; EDA 3 mg/kg): 67.04 ± 11.3 U/mgprot
- SOD activity in the prefrontal cortex (PFC) ([3]; EDA 3 mg/kg): 124.6 ± 5.73 U/mgprot
- SOD activity in the cerebellum (CE) ([3]; EDA 10 mg/kg): 83.07 ± 3.39 U/mgprot
- SOD activity in the prefrontal cortex (PFC) ([3]; EDA 10 mg/kg): 203.4 ± 14.37 U/mgprot
- SOD activity in the cerebellum (CE) ([3]; EDA 30 mg/kg): 138.7 ± 18.62 U/mgprot
- SOD activity in the prefrontal cortex (PFC) ([3]; EDA 30 mg/kg): 315 ± 42.53 U/mgprot
- GST activity in the hippocampus (HIP) ([4]; EDA 3 mg/kg): 144.5 ± 59.64 U/mgprot
- GST activity in the prefrontal cortex (PFC) ([4]; EDA 3 mg/kg): 39.54 ± 13.34 U/mgprot
- GST activity in the hippocampus (HIP) ([4]; EDA 10 mg/kg): 117.7 ± 28.12 U/mgprot
- GST activity in the prefrontal cortex (PFC) ([4]; EDA 10 mg/kg): 46.93 ± 13.31 U/mgprot
- GST activity in the hippocampus (HIP) ([4]; EDA 30 mg/kg): 295.4 ± 54.67 U/mgprot
- GST activity in the prefrontal cortex (PFC) ([4]; EDA 30 mg/kg): 103.8 ± 22.27 U/mgprot
- GST activity in the prefrontal cortex (PFC) compared with the placebo group ([4]; high-dose EDA group, p<0.01 (FIG. 9)): significantly increased
- GST activity in the hippocampus (HIP) compared with the placebo group ([4]; high-dose EDA group, p<0.01 (FIG. 10)): significantly increased
- GSH activity in the serum compared with the placebo group ([5]; EDA high-dose group, p<0.01 (FIG. 12)): even more significantly increased
- GSH activity in the hippocampus (HIP) compared with the placebo group ([5]; EDA high-dose group, p<0.05 (FIG. 11)): significantly increased
- GSH activity in the hippocampus (HIP) ([5]; EDA 3 mg/kg): 14.44 ± 7.97 U/mgprot
- GSH activity in the serum ([5]; EDA 3 mg/kg): 9.6 ± 2.14 U/mgprot
- GSH activity in the hippocampus (HIP) ([5]; EDA 10 mg/kg): 49.39 ± 10.34 U/mgprot
- GSH activity in the serum ([5]; EDA 10 mg/kg): 10.35 ± 1.92 U/mgprot
- GSH activity in the hippocampus (HIP) ([5]; EDA 30 mg/kg): 78.87 ± 17.13 U/mgprot
- GSH activity in the serum ([5]; EDA 30 mg/kg): 21.45 ± 0.86 U/mgprot
- Cys content in the blood compared with the placebo group (cysteine (Cys); EDA high-dose group, after 28 days of treatment, p<0.0001 (FIG. 13)): significantly higher
- Cys content in serum (cysteine (Cys); EDA 3 mg/kg): 0.35 ± 0.05 µmol/mL
- Cys content in serum (cysteine (Cys); EDA 10 mg/kg): 0.38 ± 0.13 µmol/mL
- Cys content in serum (cysteine (Cys); EDA 30 mg/kg): 1.15 ± 0.10 µmol/mL

Structure (SMILES): O=C(O)c1cc(=O)c2c(OCC(O)COc3cccc4oc(C(=O)O)cc(=O)c34)cccc2o1 [cromolyn sodium]
- Social index (SI) ([1]; Day 14, cromolyn sodium 6.3 mg/kg intraperitoneal once a day): 0.08 ± 0.37
- Social index (SI) [1, 13]: 0.42 ± 0.07
- Social index compared with the placebo group [1, 9]: significantly improved
- Social index, positive drug versus positive drug solvent group ([1]; after 28 days of treatment, cromolyn sodium 6.3 mg/kg intraperitoneal (FIG. 4)): no significant difference
- Social index (SI) [1, 14]: −0.13 ± 0.12
- Grooming time [2, 13]: 12.41 ± 2.01
- Grooming time, positive drug solvent group versus positive drug group ([2]; after 28 days of treatment, cromolyn sodium 6.3 mg/kg intraperitoneal (FIG. 6)): no significant difference
- Grooming time compared with before treatment ([2]; after 28 days of treatment): significantly reduced
- Grooming time [2, 14]: 27.63 ± 5.78
